Data on 2 compounds can be found in US9918974B2, “Pyridone derivatives as rearranged during transfection (RET) kinase inhibitors” (GlaxoSmithKline Intellectual Property Development Limited, priority 2014, dated 2018).

In the experiment the target is Human RET kinase (Homo sapiens (Human), UniProt P07949, C634W). The experiment is described as follows: RET kinase cell-based mechanistic assay (constitutive RET kinase phosphorylation in TT cells). The following applies: 2 h treatment, phospho-RET ELISA. As to the method:
RET Kinase Cell-Based Mechanistic Assay
The potency of the compounds of the invention were tested for its ability to inhibit constitutive RET kinase phosphorylation in cell-based assay. TT cells (ATCC CRL-1803), a medullary thyroid cancer cell line with constitutively activated RET kinase, were maintained in 150 cm^2 dishes in F12 Kaighn's medium, 10% fetal bovine serum, 1× Glutamax, 1× non-essential amino acids, 1× Pen/Strep antibiotics at 37° C. in 5% carbon dioxide. 1.0E5 TT cells/well were plated in a 96-well cell culture plate and allowed to adhere overnight. […] Plates were washed 4× with 200 μL of 1×PBS; 0.05% Tween-20, 100 μL of TMB (3,3′,5,5″-tetramethylbenzidine) substrate (Cell Signaling #7004) was added, incubated for 10 minutes at 37° C., 100 μL of Stop solution (Cell Signaling #7002) was added and absorbance read on a spectrophotometer at 450 nm. […]
On the technique in general: ELISA stands for enzyme-linked immunosorbent assay.

Human RET kinase, sequence (P07949 29-1114 C634W): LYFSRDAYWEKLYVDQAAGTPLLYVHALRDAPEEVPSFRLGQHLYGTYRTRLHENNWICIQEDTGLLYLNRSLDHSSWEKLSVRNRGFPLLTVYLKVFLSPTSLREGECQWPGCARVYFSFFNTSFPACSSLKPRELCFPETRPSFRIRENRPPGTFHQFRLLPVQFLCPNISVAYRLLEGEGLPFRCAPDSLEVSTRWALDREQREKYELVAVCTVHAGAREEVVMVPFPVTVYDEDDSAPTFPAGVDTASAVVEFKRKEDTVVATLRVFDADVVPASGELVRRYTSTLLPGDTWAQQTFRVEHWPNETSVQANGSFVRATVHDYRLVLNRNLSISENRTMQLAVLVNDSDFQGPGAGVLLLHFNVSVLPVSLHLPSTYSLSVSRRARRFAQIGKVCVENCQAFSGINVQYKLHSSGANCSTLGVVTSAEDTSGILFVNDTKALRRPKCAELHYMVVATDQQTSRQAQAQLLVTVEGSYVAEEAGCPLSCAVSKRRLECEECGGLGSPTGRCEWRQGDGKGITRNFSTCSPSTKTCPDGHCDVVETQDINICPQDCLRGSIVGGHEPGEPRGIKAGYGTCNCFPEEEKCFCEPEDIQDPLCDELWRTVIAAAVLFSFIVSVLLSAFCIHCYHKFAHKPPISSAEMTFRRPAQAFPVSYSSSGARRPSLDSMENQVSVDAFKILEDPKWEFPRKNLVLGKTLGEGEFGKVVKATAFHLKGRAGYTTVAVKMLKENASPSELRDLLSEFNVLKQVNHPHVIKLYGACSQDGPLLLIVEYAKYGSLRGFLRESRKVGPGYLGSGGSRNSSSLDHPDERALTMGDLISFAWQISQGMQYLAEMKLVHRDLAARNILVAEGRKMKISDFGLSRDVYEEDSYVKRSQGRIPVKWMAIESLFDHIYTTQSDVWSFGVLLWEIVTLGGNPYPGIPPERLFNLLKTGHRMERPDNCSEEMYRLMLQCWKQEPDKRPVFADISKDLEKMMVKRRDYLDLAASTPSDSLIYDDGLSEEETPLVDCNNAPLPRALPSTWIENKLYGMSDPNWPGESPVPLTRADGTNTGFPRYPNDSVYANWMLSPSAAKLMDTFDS

One may read the IC50 as the concentration that gives 50% inhibition. Read a low IC50 as inhibition by little substance. In turn, `CCOc1cc(=O)[nH]cc1-c1ccc(CC(=O)Nc2cc(C(=O)NCCN(C)C)cc(C(F)(F)F)c2)c(F)c1` [Example 1, N-(2-(dimethylamino)ethyl)-3-(2-(4-(4-ethoxy-6-oxo-1,6-dihydropyridin-3-yl)-2-fluorophenyl)acetamido)-5-(trifluoromethyl)benzamide] displayed a half-maximal inhibitory concentration (IC50) of 10 to 100 nM. The value for `CCOc1cc(=O)[nH]cc1-c1ccc(CC(=O)Nc2cc(OCCN(C)C)cc(C(F)(F)F)c2)c(F)c1` [Example 2, N-(3-(2-(dimethylamino)ethoxy)-5-(trifluoromethyl)phenyl)-2-(4-(4-ethoxy-6-oxo-1,6-dihydropyridin-3-yl)-2-fluorophenyl)acetamide] was 10 to 100 nM.
